According to the supplement of paper PMC9103864:

What was measured:
[1] = test system: BMSC (primary human bone marrow mesenchymal stromal cells); assay: drug sensitivity score (DSS); higher = more sensitive
[2] = test system: BMSC (primary human bone marrow mesenchymal stromal cells); assay: absolute EC50 for viability; higher = less sensitive

Compound | drug sensitivity score [1] | absolute EC50 for viability [2]
CCNC(=O)CCC/C=C\C[C@@H]1[C@@H](/C=C/[C@@H](O)CCc2ccccc2)[C@H](O)C[C@@H]1O [Bimatoprost] | -0.9 | > 5.5 µM
CCCC(CCC)C(=O)O [Valproic acid] | 0 | > 1000 µM
COC(=O)N[C@@H](C)CNc1nccc(-c2cn(C(C)C)nc2-c2cc(Cl)cc(NS(C)(=O)=O)c2F)n1 [Encorafenib] | 0 | > 1 µM
Nc1cc(COc2c(Cl)cc(C[C@H](N)C(=O)O)cc2Cl)c2oc(-c3ccccc3)nc2c1 [JPH203] | 0 | > 5 µM
Cn1c(=O)n(-c2ccc(C(C)(C)C#N)cc2)c2c3cc(-c4cnc5ccccc5c4)ccc3ncc21 [Dactolisib] | 10.7 | 0.114 µM
CN(CC(=O)N(Cc1ccc(C2CCCCC2)cc1)c1ccc(C(=O)O)cc1)S(=O)(=O)c1c(F)c(F)c(F)c(F)c1F [SH-4-54] | 4 | > 25 µM
COc1cc(Nc2c(C#N)cnc3cc(OCCCN4CCN(C)CC4)c(OC)cc23)c(Cl)cc1Cl [Bosutinib] | 8.8 | 1.69 µM
CCc1cncnc1N1CCN(Cc2nc3ccc(C(F)(F)F)cc3[nH]2)CC1 | 1 | > 10 µM
C=CCc1cccc(/C=N/NC(=O)CN2CCN(Cc3ccccc3)CC2)c1O [PAC-1] | 0.5 | > 10 µM
COc1cc(C)c(/C=C/C(C)=C/C=C/C(C)=C/C(=O)O)c(C)c1C [Acitretin] | 0 | > 10 µM
CN(C)C(=O)c1ccc(S(=O)(=O)c2ccc(NC(=O)C(C)(O)C(F)(F)F)c(Cl)c2)cc1 (centres undefined) [AZD7545] | 0 | > 10 µM
C[C@@H]1CN(Cc2ccc(F)cc2)[C@@H](C)CN1C(=O)c1cc2c(C(=O)C(=O)N(C)C)cn(C)c2cc1Cl [Talmapimod] | 0 | > 10 µM
COc1cc2nccc(Oc3ccc(NC(=O)C4(C(=O)Nc5ccc(F)cc5)CC4)cc3)c2cc1OC [Cabozantinib] | 3.6 | > 1 µM
O=C(NCc1ccncc1)C12CC3CC(C1)CC(c1ccc(Cl)cc1)(C3)C2 | 3.3 | > 50 µM
COc1cc2c(cc1-c1c(C)noc1C)ncc1[nH]c(=O)n([C@H](C)c3ccccn3)c12 [I-BET151] | 3.5 | > 10 µM
COc1cc2c(N3CCN(C(=O)Nc4ccc(OC(C)C)cc4)CC3)ncnc2cc1OCCCN1CCCCC1 [Tandutinib] | 2.7 | > 1 µM
Cc1ccc(NC(=O)c2ccc(CN3CCN(C)CC3)cc2)cc1Nc1nc(-c2cccnc2)cs1 [Masitinib] | 8.8 | 2.86 µM
C[C@H]1C[C@@H]2[C@H]([C@@H](O)C[C@@]3(C)[C@H]2CC[C@]3(O)C(=O)CO)[C@@]2(C)C=CC(=O)C=C12 [Methylprednisolone] | 0 | > 10 µM
Cc1[nH]nc(C(F)(F)F)c1Cc1sc2c(c1C(=O)N1C[C@](C)(O)CO1)c(=O)n(C)c(=O)n2C(C)C [AZD3965] | 0 | > 1 µM
O=C(O)CC[C@H]1CC[C@@](c2cc(F)ccc2F)(S(=O)(=O)c2ccc(Cl)cc2)CC1 [MK-0752] | 0 | > 1 µM
O=C1CCC(N2C(=O)c3ccccc3C2=O)C(=O)N1 (centres undefined) [Thalidomide] | 0 | > 10 µM

Compound | drug sensitivity score [1] | absolute EC50 for viability [2]
N#CC1(c2ccc(NC(=O)c3cccnc3NCc3ccncc3)cc2)CCCC1 [Apatinib] | 0.1 | > 10 µM
CCN(CCCOc1ccc2c(Nc3cc(CC(=O)Nc4cccc(F)c4)[nH]n3)ncnc2c1)CCOP(=O)(O)O [Barasertib] | 0.1 | > 1 µM
Cc1nc2cccc(N)c2c(=O)n1C1CCC(=O)NC1=O (centres undefined) [CC122] | 0 | 9.93 µM
CNc1nc(Nc2cn(C(C)(C)C#N)nc2C)ncc1C(F)(F)F [GNE-0877] | 0 | > 1 µM
COc1cc(Nc2ncc(F)c(Nc3ccc4c(n3)N(COP(=O)(O)O)C(=O)C(C)(C)O4)n2)cc(OC)c1OC [Fostamatinib] | 5.2 | > 2.5 µM
O=c1[nH]c(=O)n([C@H]2C[C@H](O)[C@@H](CO)O2)cc1F [Floxuridine] | 0 | > 10 µM
CCN1C(=O)CNc2ncc(-c3ccc(-c4nc[nH]n4)nc3C)nc21 [CC-115] | 6.9 | 2.86 µM
COc1ccc2[nH]cc(/C=C3\C(=O)Nc4ccc(NC(=O)CCN5CCCCC5)cc43)c2c1 | 9.6 | 7.38 µM
Cn1c(Nc2ccc(C(F)(F)F)cc2)nc2cc(Oc3ccnc(-c4ncc(C(F)(F)F)[nH]4)c3)ccc21 [RAF-265] | 2.5 | > 1 µM
CC[C@@H](C(=O)[C@@H](C)[C@@H](O)[C@H](C)[C@@H]1O[C@@H]([C@@H](CC)C(=O)O)CC[C@@H]1C)[C@H]1O[C@]2(C=C[C@@H](O)[C@]3(CC[C@@](C)([C@H]4CC[C@](O)(CC)[C@H](C)O4)O3)O2)[C@H](C)C[C@@H]1C [Salinomycin] | 16.8 | 1.53 µM
O=C(Nc1cc(Cl)cc2c1[nH]c1cnccc12)c1cccnc1 [PS-1145] | 0 | > 25 µM
CC1(C)CCC(c2ccc(Cl)cc2)=C(CN2CCN(c3ccc(C(=O)NS(=O)(=O)c4ccc(N[C@H](CCN5CCOCC5)CSc5ccccc5)c(S(=O)(=O)C(F)(F)F)c4)cc3)CC2)C1 [Navitoclax] | 0 | > 10 µM
CC#CC(=O)N1CCC[C@H]1c1nc(-c2ccc(C(=O)Nc3ccccn3)cc2)c2c(N)nccn12 [Acalabrutinib] | 0 | > 1 µM
c1ccc2n[se]nc2c1 [BCI] | 14.9 | 2.55 µM
Cc1cc(Nc2ncc(Cl)c(Nc3ccccc3S(=O)(=O)C(C)C)n2)c(OC(C)C)cc1C1CCNCC1 [Ceritinib] | 1.3 | > 2.5 µM
N#Cc1ccc(C(c2ccc(C#N)cc2)n2cncn2)cc1 [Letrozole] | 0 | > 10 µM
CNc1ncc2cc(-c3cc(NC(=O)NCCC(C)(C)C)c(F)cc3C)c(C)nc2n1 | 6.2 | > 10 µM
O=c1sn(-c2cccc3ccccc23)c(=O)n1Cc1ccccc1 [Tideglusib] | 0 | > 3 µM
C[C@H]1CN(C2COC2)CCN1c1ccc(Nc2cc(-c3ccnc(N4CCn5c(cc6c5CC(C)(C)C6)C4=O)c3CO)cn(C)c2=O)nc1 [GDC-0853] | 0 | > 1 µM
Cc1nc(C(=O)NCC(=O)O)c(O)c2ccc(Oc3ccccc3)cc12 [Roxadustat] | 0.5 | > 10 µM
COc1cc2c(Nc3ccc(Cl)c(Cl)c3F)ncnc2cc1OC[C@@H]1C[C@@H]2CN(C)C[C@@H]2C1 [Tesevatinib] | 4.1 | > 1 µM
